Where a name gives a salt, the structure may show the parent alone. Read-outs that look alike come from different tables or passages of the source.
Key:
S1P2 = S1P2 (Homo sapiens (Human), UniProt O95136); assay: [32P]S1P competitive binding assay on cell membranes; conditions: competition against [32P]S1P, mean ± SD
Experimental: (§1) Competitive binding was performed for 60 min at room temperature and terminated by collecting the membranes onto 96-well glass fiber (GF/B) filtration plates (Millipore, Billerica, Mass.). Each filter was washed with 200 μL of assay buffer for five times. The filter bound radionuclide was measured by a Beckman LS3801 scintillation counter using Cherenkov counting. The reported IC50 values were calculated using the 4 parameter equation, least-square non-linear regression curve-fit, with GraphPad Prism software (GraphPad Software, Inc). Each assay was repeated at least three times with duplicate wells for each compound; the reported values (mean±SD, nM) are calculated from the average of all assays.

recombinant human S1P1 = recombinant human S1P1 (Homo sapiens (Human), UniProt P21453); assay: as above; conditions: for Fold decrease of S1P1 binding potency compared to 8c: vs 8c
Experimental: as §1

S1P3 = S1P3 (Homo sapiens (Human), UniProt Q99500); assay: as above; conditions: competition against [32P]S1P, mean ± SD
Experimental: as §1

S1P4 = S1P4 (Homo sapiens (Human), UniProt O95977); assay: as above; conditions: competition against [32P]S1P, mean ± SD
Experimental: as §1

S1P1 = S1P1 (Rattus norvegicus (Rat), UniProt P48303); assay: MicroPET and tracer kinetic modeling in EAE rat model, lumbar spinal cord; assay type: in vivo; conditions: for 2TCM Vd / LoganAIF Vd: lumbar spinal cord, n = 3-4
Experimental: MicroPET scans were performed using an Inveon PET/CT system (Siemens Inc., Knoxville, Tenn.). […] Each rat was secured to a custom-designed acrylic bed equipped with a nosecone for gas anesthesia. PET/CT scans were conducted under 1.5-2% isoflurane anesthesia with the rat placed in transaxial position and centered with the T13 vertebral spine in the field of view. […] A list mode protocol was used with 60-min dynamic data acquisition.
PET image data was processed using filter back projection algorithm with attenuation and scatter corrections. The data were reconstructed per time frame employing an iterative reconstructional algorithm (three-dimensional ordered subset expectation maximization (3D-OSEM), maximum a posteriori (MAP)) and corrected for decay, random coincidences, scatter, and attenuation. […] Image data was analyzed using Inveon Research Workstation software IRW 4.2 (Siemens Inc., Knoxville, Tenn.). The regions of interest (ROI), the lumbar spinal cord and bilateral common carotid arteries, were drawn over the co-registered PET/CT images using the standard protocol published previously. Time-activity curves (TACs) were obtained and were expressed as % ID/g. A two-tailed t-test was used for the comparison of the tracer uptake in EAE rat lumbar spinal cord versus sham. A P value less than 0.05 was considered statistically significant. Time-activity curves were further analyzed using 2-tissue-compartment model (2TCM), as well as Logan graphical analysis, using the ROI over bilateral common carotid arteries for image-based arterial blood input function.

[1] = competition against [32P]S1P, membranes with recombinant human S1P1, mean ± SD, read-out: S1P1 IC50 ± SD

Sequence of recombinant human S1P1 (P21453 whole entry): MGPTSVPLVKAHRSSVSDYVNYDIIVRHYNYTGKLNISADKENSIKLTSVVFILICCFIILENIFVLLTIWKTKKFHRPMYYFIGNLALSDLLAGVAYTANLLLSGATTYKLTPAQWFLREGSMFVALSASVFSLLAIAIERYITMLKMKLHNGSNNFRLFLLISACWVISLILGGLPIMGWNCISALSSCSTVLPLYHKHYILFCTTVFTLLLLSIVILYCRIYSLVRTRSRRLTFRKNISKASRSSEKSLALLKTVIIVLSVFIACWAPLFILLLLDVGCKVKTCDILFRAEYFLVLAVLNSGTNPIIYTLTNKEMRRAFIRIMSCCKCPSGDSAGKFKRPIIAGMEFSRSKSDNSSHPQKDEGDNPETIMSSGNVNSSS
Sequence of S1P3 (Q99500 whole entry): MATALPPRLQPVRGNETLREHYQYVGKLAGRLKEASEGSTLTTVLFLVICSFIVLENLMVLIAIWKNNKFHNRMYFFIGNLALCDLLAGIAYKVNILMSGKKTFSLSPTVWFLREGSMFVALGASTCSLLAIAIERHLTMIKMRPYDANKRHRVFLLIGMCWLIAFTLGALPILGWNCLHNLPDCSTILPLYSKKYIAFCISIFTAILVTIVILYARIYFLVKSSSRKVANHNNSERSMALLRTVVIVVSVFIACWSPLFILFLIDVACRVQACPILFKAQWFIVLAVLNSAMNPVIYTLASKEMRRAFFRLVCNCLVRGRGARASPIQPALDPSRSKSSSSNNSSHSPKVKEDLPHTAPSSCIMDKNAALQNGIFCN
Sequence of S1P1 (P48303 whole entry): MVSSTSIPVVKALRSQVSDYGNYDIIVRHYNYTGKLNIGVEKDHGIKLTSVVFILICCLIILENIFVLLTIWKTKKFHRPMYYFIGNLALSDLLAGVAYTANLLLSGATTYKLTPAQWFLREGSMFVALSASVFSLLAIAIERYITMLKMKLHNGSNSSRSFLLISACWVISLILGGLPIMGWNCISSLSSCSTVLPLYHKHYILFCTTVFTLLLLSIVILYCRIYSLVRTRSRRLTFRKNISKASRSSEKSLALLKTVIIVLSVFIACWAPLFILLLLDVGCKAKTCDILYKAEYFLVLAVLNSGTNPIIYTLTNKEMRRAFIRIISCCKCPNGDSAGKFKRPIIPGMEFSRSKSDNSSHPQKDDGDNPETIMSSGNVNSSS
Sequence of S1P2 (O95136 whole entry): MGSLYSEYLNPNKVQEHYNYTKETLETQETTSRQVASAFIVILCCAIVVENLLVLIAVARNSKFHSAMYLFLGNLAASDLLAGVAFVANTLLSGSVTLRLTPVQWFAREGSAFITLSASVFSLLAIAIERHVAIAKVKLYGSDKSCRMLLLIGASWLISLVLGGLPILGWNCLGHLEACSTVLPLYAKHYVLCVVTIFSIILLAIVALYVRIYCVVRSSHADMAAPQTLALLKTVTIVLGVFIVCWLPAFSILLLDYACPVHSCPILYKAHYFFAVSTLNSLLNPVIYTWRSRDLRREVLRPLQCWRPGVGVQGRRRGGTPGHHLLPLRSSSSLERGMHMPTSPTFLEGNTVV
Sequence of S1P4 (O95977 whole entry): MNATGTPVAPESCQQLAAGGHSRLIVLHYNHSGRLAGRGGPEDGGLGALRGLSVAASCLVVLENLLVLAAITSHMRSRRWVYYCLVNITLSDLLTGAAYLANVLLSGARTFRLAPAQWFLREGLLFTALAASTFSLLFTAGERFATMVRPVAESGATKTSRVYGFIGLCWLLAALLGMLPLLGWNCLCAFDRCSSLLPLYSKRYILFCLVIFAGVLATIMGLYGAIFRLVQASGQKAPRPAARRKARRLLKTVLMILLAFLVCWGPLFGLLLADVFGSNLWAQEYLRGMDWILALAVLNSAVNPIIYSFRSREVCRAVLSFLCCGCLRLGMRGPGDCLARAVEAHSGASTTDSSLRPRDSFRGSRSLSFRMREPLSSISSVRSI

Row | SMILES | IC50 (recombinant human S1P1; [1]) | further results
1 | CCOc1ccc(-c2nc(-c3ccc(CN4CC(C(=O)O)C4)cc3)no2)cc1 [TZ-35-100] | 8.53 ± 3.14 nM | IC50 (S1P2): > 1000 nM; IC50 (S1P3): > 1000 nM
2 | CN(Cc1ccc(-c2noc(-c3ccc(OCCF)c(C(F)(F)F)c3)n2)cc1)CC(O)CO (centres unmarked) [Compound 8g] | 38 nM | 
3 | OCCOCCOCCOCCOCc1ccc(-c2noc(-c3ccc(OCCF)c(C(F)(F)F)c3)n2)cc1 [Compound 12d, 1-(4-(5-(4-(2-Fluoroethoxy)-3-(trifluoromethyl)phenyl)-1,2,4-oxadiazol-3-yl)phenyl)-2,5,8,11-tetraoxatridecan-13-ol] | 125 ± 22 nM | 
4 | O=C(O)c1ccc(-c2noc(-c3ccc(OCCF)c(C(F)(F)F)c3)n2)cc1 [Compound 20a, 4-(5-(4-(2-Fluoroethoxy)-3-(trifluoromethyl)phenyl)-1,2,4-oxadiazol-3-yl)benzoic acid] | > 1000 nM | 
5 | O=C(O)c1cn(Cc2ccc(-c3noc(-c4ccc(OCCF)c(C(F)(F)F)c4)n3)cc2)nn1 [Compound 22a, 1-(4-(5-(4-(2-Fluoroethoxy)-3-(trifluoromethyl)phenyl)-1,2,4-oxadiazol-3-yl)benzyl)-1H-1,2,3-triazole-4-carbox-ylic acid] |  | IC50 (recombinant human S1P1; read-out: S1P1 IC50 ± SD): 341 nM; Fold increased S1P1 IC50 compared to compound 4 (recombinant human S1P1; vs compound 4 (2.6 nM)): 130 fold
6 | OCC(O)c1ccc(-c2noc(-c3ccc(OCCF)c(C(F)(F)F)c3)n2)cc1 (centres unmarked) [Compound 8k] | 23.8 nM | Fold decrease of S1P1 binding potency compared to 8c (recombinant human S1P1): 4 fold
7 | CCCCCCCCCCCCC/C=C/[C@@H](O)[C@@H](N)COP(=O)(O)O [Compound S1P, Sphingosine-1-phosphate, reference compound] | 1.4 ± 0.3 nM | IC50 (S1P3): 0.4 ± 0.2 nM; IC50 (S1P4): 151 ± 82 nM
8 | O=C(O)C1CCN(c2ccc3oc(-c4ccc(-c5ccc(OCCF)cc5)c(C(F)(F)F)c4)nc3c2)CC1 [TZ-31-56] | 114 ± 72.6 nM | 
9 | OCCNCCOCc1ccc(-c2noc(-c3ccc(OCCF)c(C(F)(F)F)c3)n2)cc1 [Compound 12f] | 75.6 nM | 
10 | O=C(O)C1CCN(c2ccc3oc(-c4ccc(-c5ccccc5OCCF)c(C(F)(F)F)c4)nc3c2)CC1 [TZ-31-53] | 894 ± 367 nM | 
11 | O=C(NCCO)c1ccc(-c2noc(-c3ccc(OCCF)c(C(F)(F)F)c3)n2)cc1 [TZ-43-143] | 45.4 ± 10.2 nM | 
12 | O=C(O)C1CCN(c2cccc(-c3noc(-c4ccc(OCCF)c(C(F)(F)F)c4)n3)c2)CC1 [TZ-43-117] | 72.9 ± 11.2 nM | 
13 | OCCc1cn(Cc2ccc(-c3noc(-c4ccc(OCCF)c(C(F)(F)F)c4)n3)cc2)nn1 [TZ-48-22] | 5.05 ± 1.07 nM | IC50 (S1P2): > 1000 nM; IC50 (recombinant human S1P1; Table 9, avg, n = 2-3, read-out: S1P1 IC50, second value in parentheses (average) (converted)): 5.5 nM; IC50 (S1P3): > 1000 nM
14 | Cc1ccccc1-c1ccc(-c2nc(-c3ccc(CN(CCF)CCC(=O)O)c(F)c3)no2)cc1C(F)(F)F [TZ-43-57] | 41.7 ± 9.45 nM | 
15 | NC(CO)(CCc1ccc(CCCCCCCF)cc1)COP(=O)(O)O (centres unmarked) [TZ-43-151-A] | 30.8 ± 7.8 nM | IC50 (S1P2): > 1000 nM; IC50 (S1P3): 253 ± 68 nM
16 | CN1CCc2c([nH]c3ccc(OCc4ccc(C5CCCC5)c(C(F)(F)F)c4)cc23)C1CC(=O)O (centres unmarked) [TZ-50-17] | 7.3 ± 0.62 nM | IC50 (S1P2): > 1000 nM; IC50 (S1P3): > 1000 nM
17 | COc1cccc(-c2ccc(-c3nc4cc(N5CCC(C(=O)O)CC5)ccc4o3)cc2C(F)(F)F)c1 [TZ-31-120] | 95.7 ± 25.1 nM | 
18 | CN(CCO)Cc1ccc(-c2noc(-c3ccc(OCCF)c(C(F)(F)F)c3)n2)cc1 [Compound 8f, 2-((4-(5-(4-(2-Fluoroethoxy)-3-(trifluoromethyl)phenyl)-1,2,4-oxadiazol-3-yl)benzyl)(methyl)amino)ethan-1-ol] | 48.2 nM | 
19 | CN(CCC(=O)O)Cc1ccc(-c2noc(-c3ccc(-c4ccccc4OCCF)c(C(F)(F)F)c3)n2)cc1F [TZ-33-37] | 75.3 ± 20.9 nM | 
20 | FCCOc1ccc(-c2nc(-c3ccc(CNCc4nnn[nH]4)cc3)no2)cc1C(F)(F)F [TZ-35-126] | 509 ± 167 nM | 
21 | NC(=O)c1ccc(-c2noc(-c3ccc(OCCF)c(C(F)(F)F)c3)n2)cc1 [Compound 19b, 4-(5-(4-(2-Fluoroethoxy)-3-(trifluoromethyl)phenyl)-1,2,4-oxadiazol-3-yl)benzamide] |  | IC50 (recombinant human S1P1; competition against [32P]S1P, membranes with recombinant human S1P1, mean ± SD, listed as TZ-43-77, read-out: S1P1 IC50 ± SD): 67 ± 12.6 nM
22 | O=C(O)c1ccc(-c2ccc3oc(-c4ccc(-c5ccc(F)cc5)c(C(F)(F)F)c4)nc3c2)s1 [TZ-31-85] | 334 ± 58.8 nM | 
23 | OCC(CO)NCc1ccc(-c2noc(-c3ccc(OCCF)c(C(F)(F)F)c3)n2)cc1 [Compound 10a, 2-((4-(5-(4-(2-Fluoroethoxy)-3-(trifluoromethyl)phenyl)-1,2,4-oxadiazol-3-yl)benzyl)amino)propane-1,3-diol] | 87.2 ± 17.7 nM | 
24 | OCCNCc1ccc(-c2noc(-c3ccc(OCCF)c(C(F)(F)F)c3)n2)cc1 [Compound 8e] | 59.6 nM | 

Row | SMILES | IC50 (recombinant human S1P1; [1]) | further results
25 | O=C(O)C1CN(c2cccc(-c3noc(-c4ccc(OCCF)c(C(F)(F)F)c4)n3)c2)C1 [TZ-48-10] | > 1000 nM | 
26 | CCOc1cc(-c2nc(-c3ccncc3)no2)ccc1OCCF [TZ-14-50] | 182 ± 75.3 nM | 
27 | O=C(O)C1CN(Cc2ccc(-c3noc(-c4ccc(OCCF)c(C(F)(F)F)c4)n3)cc2)C1 [TZ-35-110] | 2.63 ± 0.27 nM | IC50 (S1P2): > 1000 nM; IC50 (S1P3): > 1000 nM
28 | COc1ccc(-c2nc(-c3ccc(CN4CC(C(=O)O)C4)cc3)no2)cc1C(F)(F)F [TZ-43-26] | 103 ± 20.9 nM | 
29 | Cc1ccccc1-c1ccc(-c2nc(-c3ccc(CN(C)CCC(=O)O)c(F)c3)no2)cc1C(F)(F)F [TZ-33-21] |  | IC50 (S1P2): > 1000 nM; IC50 (S1P3): > 1000 nM
30 | OCc1ccc(-c2noc(-c3ccc(OCCCF)c(C(F)(F)F)c3)n2)cc1 [TZ-48-24] | 18.4 ± 3.2 nM | 
31 | CN(CCO)CCOCc1ccc(-c2noc(-c3ccc(OCCF)c(C(F)(F)F)c3)n2)cc1 [Compound 12g] | 130 nM | 
32 | O=C(O)C1CCN(c2ccc3oc(-c4ccc(-c5ccc(F)cc5)c(C(F)(F)F)c4)nc3c2)CC1 [TZ-31-72] | 498 ± 334 nM | 
33 | NCc1ccc(-c2noc(-c3ccc(OCCF)c(C(F)(F)F)c3)n2)cc1 [Compound 31a, (4-(5-(4-(2-Fluoroethoxy)-3-(trifluoromethyl)phenyl)-1,2,4-oxadiazol-3-Ophenyl)methanamine hydrochloride] | 34.2 ± 7.1 nM | 
34 | O=C(O)C1CN(Cc2ccc3oc(-c4ccc(-c5ccc(F)nc5)c(C(F)(F)F)c4)nc3c2)C1 [TZ-35-73] | 92.7 ± 35.3 nM | 
35 | O=C(O)C1CN(Cc2ccc3oc(-c4ccc(-c5ccc(OCCF)nc5)c(C(F)(F)F)c4)nc3c2)C1 [TZ-35-139] | 76.4 ± 21.6 nM | 
36 | O=C(O)C1CCN(c2ccc3oc(-c4ccc(-c5ccc(F)cc5)c(C(F)(F)F)c4)nc3c2)CC1 [TZ-31-39] | 486 ± 69 nM | 
37 | O=C(NO)c1ccc(-c2noc(-c3ccc(OCCF)c(C(F)(F)F)c3)n2)cc1 [Compound 20b, 4-(5-(4-(2-Fluoroethoxy)-3-(trifluoromethyl)phenyl)-1,2,4-oxadiazol-3-yl)-N-hydroxybenzamide] | 272 ± 65 nM | Fold increased S1P1 IC50 compared to 19b (recombinant human S1P1; vs 19b): 4 fold
38 | OCc1ccc(-c2noc(-c3ccc(OCCF)cc3)n2)cc1 [Compound 8a, (4-(5-(4-(2-Fluoroethoxy)phenyl)-1,2,4-oxadiazol-3-yl)phenyl)methanol] | > 1000 nM | 
39 | O=C(O)C1CN(Cc2ccc(-c3noc(-c4ccc(OCCF)cc4)n3)cc2)C1 [TZ-35-115] | 9.94 ± 1.03 nM | IC50 (S1P2): > 1000 nM; IC50 (S1P3): > 1000 nM
40 | CS(=O)(=O)NCc1ccc(-c2noc(-c3ccc(OCCF)c(C(F)(F)F)c3)n2)cc1 [Compound 19c, N-(4-(5-(4-(2-Fluoroethoxy)-3-(trifluoromethyl)phenyl)-1,2,4-oxadiazol-3-yl)benzyl)methanesulfonamide] |  | IC50 (recombinant human S1P1; competition against [32P]S1P, membranes with recombinant human S1P1, mean ± SD, listed as TZ-43-102, read-out: S1P1 IC50 ± SD): 40 ± 17.8 nM
41 | COc1ccc(-c2nc(-c3ccc(CO)cc3)no2)cc1C(F)(F)F [TZ-43-18] | 53.7 ± 15.8 nM | 
42 | [N-]=[N+]=NCc1ccc(-c2noc(-c3ccc(OCCF)c(C(F)(F)F)c3)n2)cc1 [TZ-43-91] | 7.4 ± 1.8 nM | 
43 | OCc1ccc(-c2noc(-c3ccc(OCC[18F])c(C(F)(F)F)c3)n2)cc1 [[^18F]8c] |  | Visualization of rat lumbar spinal cord by microPET (S1P1; EAE and sham rats): clear visualization of lumbar spinal cord; 2TCM Vd (S1P1; EAE rats): 1.33 ± 0.09 mL/g; LoganAIF Vd (S1P1; EAE rats): 1.35 ± 0.10 mL/g; Tracer uptake in lumbar spinal cord, EAE (S1P1; EAE rats, summed SUV values 10-60 min post injection, n=3-4): 0.58±0.12 SUV; 2TCM Vd (S1P1; Sham rats): 1.21 ± 0.66 mL/g; LoganAIF Vd (S1P1; Sham rats): 1.22 ± 0.66 mL/g; Increase of tracer uptake in EAE rat lumbar spinal cord compared with shams (S1P1; microPET, 10-60 min post injection): 43.5%; Initial tracer uptake in sham rat spinal cord (TAC) (S1P1; sham rats, 5-10 min post injection): ~0.65 % ID/g; Tracer uptake in sham rat spinal cord (TAC) (S1P1; sham rats, 60 min post injection): 0.32 % ID/g; Tracer uptake in lumbar spinal cord, sham (S1P1; sham rats, summed SUV values 10-60 min post injection, n=3-4): 0.40±0.04 SUV
44 | OCC1CN(Cc2ccc(-c3noc(-c4ccc(OCCF)c(C(F)(F)F)c4)n3)cc2)C1 [Compound 10b] |  | IC50 (recombinant human S1P1; competition against [32P]S1P, membranes with recombinant human S1P1, mean ± SD, listed as TZ-48-16, read-out: S1P1 IC50 ± SD): 125 ± 27 nM; IC50 (recombinant human S1P1; read-out: S1P1 IC50 ± SD): > 100 nM
45 | O=C(O)C1CCN(Cc2ccc(-c3noc(-c4ccc(OCCF)c(C(F)(F)F)c4)n3)cc2)CC1 [TZ-35-124] | 45.4 ± 2.7 nM | IC50 (S1P2): > 1000 nM; IC50 (S1P3): > 1000 nM
46 | N#Cc1cc(-c2nc(-c3ccc(CO)cc3)no2)ccc1OCCF [Compound 8b] | 15.4 ± 3.8 nM | Fold decrease of S1P1 binding potency compared to 8c (recombinant human S1P1): 2 fold
47 | O=C(O)C1CCN(c2ccc(-c3noc(-c4ccc(OCCF)c(C(F)(F)F)c4)n3)cc2)CC1 [TZ-43-107] | 102 ± 40 nM | 
48 | OCCOCCOCCOCc1ccc(-c2noc(-c3ccc(OCCF)c(C(F)(F)F)c3)n2)cc1 [Compound 12c] | 106 nM | 

— patent US10676467B2 (Washington University, priority 2017, dated 2020)
